# From paper PMC11110727, “Exploiting thiol-functionalized benzosiloxaboroles for achieving diverse substitution patterns – synthesis, characterization and biological evaluation of promising antibacterial agents” (RSC Medicinal Chemistry, 2024)
# Assays:
# [1] = system: Human normal lung fibroblasts MRC-5; assay: MTT-based viability (cytotoxicity) assay; settings: MRC-5, MTT, 48 h
# Description: To evaluate the cytotoxic effect of the tested compounds, an MTT-based assay was performed. […] Moreover, based on available IC50 and MIC (for standard and clinical S. aureus MRSA strains) values, the selectivity index (SI) was calculated for several compounds as the IC50/MIC ratio (Table 5).[60]
# MRC-5 pd30 human fibroblasts (ECACC) were cultured in MEME, Minimum Essential Medium Eagle (Merck), supplemented with 10% fetal bovine serum (Merck), 2 mM L-glutamine, antibiotics (100 U mL^−1 penicillin, 100 μg mL^−1 streptomycin, Merck) and 1% non-essential amino acids (Merck). Cells were grown in 75 cm^2 cell culture flasks (Sarstedt), in a humidified atmosphere of CO2/air (5/95%) at 37 °C. MTT-based viability assay was conducted as described previously.[26] Optical densities were measured at 570 nm using a BioTek microplate reader. All measurements were carried out in three replicates and the results expressed as a percent of viable cells versus control cells. […] The selectivity index (SI) was calculated as [drawing 30] , in accordance with previously described protocols.[60]
# E. coli ATCC 25922 = assay: Antibacterial activity: MIC/MBC, MIC with PAβN, disc-diffusion; type: cell-based, Escherichia coli; settings: E. coli ATCC 25922
# Description: (§1) Direct antimicrobial activity was determined against the following standard strains: (1) Gram-positive cocci: methicillin-sensitive Staphylococcus aureus ATCC 6538P (MSSA), methicillin-resistant S. aureus subsp. aureus ATCC 43300 (MRSA), S. epidermidis ATCC 12228, Enterococcus faecium ATCC 6057, E. faecalis ATCC 29212, Bacillus subtilis ATCC 6633; (2) Gram-negative bacteria from Enterobacteriales order: Klebsiella pneumoniae ATCC 13883, Escherichia coli ATCC 25922, Enterobacter cloacae DSM 6234, Proteus mirabilis ATCC 12453, Serratia marcescens ATCC 13880; (3) Gram-negative non-fermentative rods: Acinetobacter baumannii ATCC 19606, Pseudomonas aeruginosa ATCC 27853, Stenotrophomonas maltophilia ATCC 12714, S. maltophilia ATCC 13637, Burkholderia cepacia ATCC 25416, Bordetella bronchiseptica ATCC 4617; (4) yeasts: Candida albicans ATCC 90028, C. krusei ATCC 6258, C. parapsilosis ATCC 22019, C. tropicalis (Castellani) Berkhout ATCC 750, C. tropicalis IBA 171, C. guilliermondii IBA 155, and Saccharomyces cerevisiae ATCC 9763. Moreover, 5 clinical strains of methicillin-resistant S. aureus were also included: NMI 664 K, NMI 1576 K, NMI 1712 K, NMI 1991 K, and NMI 2541 K. All strains were stored at −80 °C. Prior to testing, each bacterial strain was subcultured twice on tryptic soy agar TSA (bioMerieux) medium and yeast strains on Sabouraud dextrose agar (bioMerieux) for 24–48 h at 30 °C to ensure viability. The antimicrobial activity was evaluated as previously described[26] by the disc-diffusion method and the MIC determination assays according to the EUCAST (ref. [71] and [72]) and CLSI (ref. [53] and [73]) recommendations. Assessment of bactericidal (MBC) and fungicidal (MFC) activities was performed according to the CLSI recommendations.[54,74] […] The new benzosiloxaboroles were dissolved in DMSO (Sigma).
# (§2) Considering that the MDR efflux pumps often contribute to Gram-negative rod resistance, the MIC values of studied agents, with or without the pump inhibitor, PAβN (20 μg mL^−1) (Sigma), were determined.[75] The MIC was determined using Mueller–Hinton II broth medium (MHB) (Becton Dickinson) by the broth microdilution method, according to the CLSI guideliness.[53] To minimize the influence of PAβN on the destabilization of bacterial cell covers, the tests were conducted in the presence of 1 mM MgSO4 (Sigma).[76] At least a 4-fold reduction in the MIC value after the addition of PAβN was considered significant.[56,77]
# K. pneumoniae ATCC 13883 = assay: as above; type: cell-based, Klebsiella pneumoniae; settings: K. pneumoniae ATCC 13883
# Description: as §1, §2
# P. mirabilis ATCC 12453 = assay: as above; type: cell-based, Proteus mirabilis; settings: P. mirabilis ATCC 12453
# Description: as §1, §2
# E. cloacae DSM 6234 = assay: as above; type: cell-based, Enterobacter cloacae; settings: E. cloacae DSM 6234
# Description: as §1, §2
# S. marcescens ATCC 13880 = assay: as above; type: cell-based, Serratia marcescens; settings: S. marcescens ATCC 13880
# Description: as §1, §2
# A. baumannii ATCC 19606 = assay: as above; type: cell-based, Acinetobacter baumannii; settings: A. baumannii ATCC 19606
# Description: as §1, §2
# P. aeruginosa ATCC 27853 = assay: as above; type: cell-based; settings: Pseudomonas aeruginosa, ATCC27853, P. aeruginosa ATCC 27853
# Description: as §1, §2
# [2] = system: S. maltophilia ATCC 12714; assay: as above; type: cell-based, Stenotrophomonas maltophilia; settings: Stenotrophomonas maltophilia, ATCC12714, S. maltophilia ATCC 12714
# Description: as §1, §2
# [3] = system: S. maltophilia ATCC 13637; assay: as above; type: cell-based, Stenotrophomonas maltophilia; settings: Stenotrophomonas maltophilia, ATCC13637, S. maltophilia ATCC 13637
# Description: as §1, §2
# B. cepacia ATCC 25416 = assay: Antibacterial activity: MIC/MBC, disc-diffusion; type: cell-based, Burkholderia cepacia; settings: B. cepacia ATCC 25416
# Description: as §1, §2
# [4] = system: B. bronchiseptica ATCC 4617; assay: Antibacterial activity: MIC/MBC, disc-diffusion; type: cell-based, Bordetella bronchiseptica; settings: Bordetella bronchiseptica, ATCC4617, B. bronchiseptica ATCC 4617
# Description: as §1, §2
# C. albicans ATCC 90028 = assay: Antifungal activity: MIC/MFC, disc-diffusion; type: cell-based, Candida albicans
# Description: (§3) Direct antimicrobial activity was determined against the following standard strains: (1) Gram-positive cocci: methicillin-sensitive Staphylococcus aureus ATCC 6538P (MSSA), methicillin-resistant S. aureus subsp. aureus ATCC 43300 (MRSA), S. epidermidis ATCC 12228, Enterococcus faecium ATCC 6057, E. faecalis ATCC 29212, Bacillus subtilis ATCC 6633; (2) Gram-negative bacteria from Enterobacteriales order: Klebsiella pneumoniae ATCC 13883, Escherichia coli ATCC 25922, Enterobacter cloacae DSM 6234, Proteus mirabilis ATCC 12453, Serratia marcescens ATCC 13880; (3) Gram-negative non-fermentative rods: Acinetobacter baumannii ATCC 19606, Pseudomonas aeruginosa ATCC 27853, Stenotrophomonas maltophilia ATCC 12714, S. maltophilia ATCC 13637, Burkholderia cepacia ATCC 25416, Bordetella bronchiseptica ATCC 4617; (4) yeasts: Candida albicans ATCC 90028, C. krusei ATCC 6258, C. parapsilosis ATCC 22019, C. tropicalis (Castellani) Berkhout ATCC 750, C. tropicalis IBA 171, C. guilliermondii IBA 155, and Saccharomyces cerevisiae ATCC 9763. Moreover, 5 clinical strains of methicillin-resistant S. aureus were also included: NMI 664 K, NMI 1576 K, NMI 1712 K, NMI 1991 K, and NMI 2541 K. All strains were stored at −80 °C. Prior to testing, each bacterial strain was subcultured twice on tryptic soy agar TSA (bioMerieux) medium and yeast strains on Sabouraud dextrose agar (bioMerieux) for 24–48 h at 30 °C to ensure viability. The antimicrobial activity was evaluated as previously described[26] by the disc-diffusion method and the MIC determination assays according to the EUCAST (ref. [71] and [72]) and CLSI (ref. [53] and [73]) recommendations. Assessment of bactericidal (MBC) and fungicidal (MFC) activities was performed according to the CLSI recommendations.[54,74] The following reference agents were used: fluconazole (in the case of fungi), linezolid (for Gram-positive bacteria), and nitrofurantoin (for Gram-negative rods). The new benzosiloxaboroles were dissolved in DMSO (Sigma).
# C. krusei ATCC 6258 = assay: Antifungal activity: MIC/MFC, disc-diffusion; type: cell-based
# Description: as §1
# [5] = system: C. guilliermondii IBA 155; assay: Antifungal activity: MIC/MFC, disc-diffusion; type: cell-based
# Description: as §3
# [6] = system: C. parapsilosis ATCC 22019; assay: Antifungal activity: MIC/MFC, disc-diffusion; type: cell-based
# Description: as §3
# C. tropicalis ATCC 750 = assay: Antifungal activity: MIC/MFC, disc-diffusion; type: cell-based
# Description: as §3
# C. tropicalis IBA 171 = assay: Antifungal activity: MIC/MFC, disc-diffusion; type: cell-based
# Description: as §3
# S. cerevisiae ATCC 9763 = assay: Antifungal activity: MIC/MFC, disc-diffusion; type: cell-based, Saccharomyces cerevisiae
# Description: as §3
# [7] = (-) = zone not observed, paper discs 9 mm
smiles,measurement,setting,value
"N.N.[Cl][Pt][Cl] [Cisplatin, reference compound]",IC50,[1],1.9 µg/mL
"O=C1CN(/N=C/c2ccc([N+](=O)[O-])o2)C(=O)N1 [NF, nitrofurantoin, reference compound]",diameter of inhibition zone,E. coli ATCC 25922; [7],24 mm
same,MBC,"E. coli ATCC 25922; Escherichia coli, ATCC25922",8 µg/mL
same,MIC,"E. coli ATCC 25922; Escherichia coli, ATCC25922, read-out: MIC",8 µg/mL
same,diameter of inhibition zone,K. pneumoniae ATCC 13883; [7],23 mm
same,MBC,"K. pneumoniae ATCC 13883; Klebsiella pneumoniae, ATCC13883",32 µg/mL
same,MIC,"K. pneumoniae ATCC 13883; Klebsiella pneumoniae, ATCC13883, read-out: MIC",32 µg/mL
same,diameter of inhibition zone,P. mirabilis ATCC 12453; [7],9 mm
same,MBC,"P. mirabilis ATCC 12453; Proteus mirabilis, ATCC12453",> 128 µg/mL
same,MIC,"P. mirabilis ATCC 12453; Proteus mirabilis, ATCC12453, read-out: MIC",128 µg/mL
same,diameter of inhibition zone,E. cloacae DSM 6234; [7],17 mm
same,MBC,"E. cloacae DSM 6234; Enterobacter cloacae, DSM6234",32 µg/mL
same,MIC,"E. cloacae DSM 6234; Enterobacter cloacae, DSM6234, read-out: MIC",32 µg/mL
same,diameter of inhibition zone,S. marcescens ATCC 13880; [7],12 mm
same,MBC,"S. marcescens ATCC 13880; Serratia marcescens, ATCC13880",> 128 µg/mL
same,MIC,"S. marcescens ATCC 13880; Serratia marcescens, ATCC13880, read-out: MIC",128 µg/mL
same,diameter of inhibition zone,A. baumannii ATCC 19606; [7],9 mm
same,MBC,"A. baumannii ATCC 19606; Acinetobacter baumannii, ATCC19606",128 µg/mL
same,MIC,"A. baumannii ATCC 19606; Acinetobacter baumannii, ATCC19606, read-out: MIC",64 µg/mL
same,MBC,P. aeruginosa ATCC 27853,> 128 µg/mL
same,MIC,P. aeruginosa ATCC 27853; read-out: MIC,> 128 µg/mL
same,MBC,[2],> 128 µg/mL
same,MIC,[2]; read-out: MIC,128 µg/mL
same,MBC,[3],> 128 µg/mL
same,MIC,[3]; read-out: MIC,128 µg/mL
same,diameter of inhibition zone,B. cepacia ATCC 25416; [7],12 mm
same,MBC,"B. cepacia ATCC 25416; Burkholderia cepacia, ATCC25416",32 µg/mL
same,MIC,"B. cepacia ATCC 25416; Burkholderia cepacia, ATCC25416, read-out: MIC",32 µg/mL
same,MBC,[4],128 µg/mL
same,MIC,[4]; read-out: MIC,64 µg/mL
"OC(Cn1cncn1)(Cn1cncn1)c1ccc(F)cc1F [FL, fluconazole, reference compound]",diameter of inhibition zone,"C. albicans ATCC 90028; C. albicans ATCC 90028, (-) = zone not observed, paper discs 9 mm",43 mm
same,MIC,"C. albicans ATCC 90028; Candida albicans, ATCC90028, read-out: MIC",1 µg/mL
same,diameter of inhibition zone,"C. krusei ATCC 6258; C. krusei ATCC 6258, (-) = zone not observed, paper discs 9 mm",16 mm
same,MIC,"C. krusei ATCC 6258; Pichia kudriavzevii, ATCC6258, read-out: MIC",64 µg/mL
same,diameter of inhibition zone,"[5]; C. guilliermondii IBA 155, (-) = zone not observed, paper discs 9 mm",40 mm
same,MIC,"[5]; Meyerozyma guilliermondii, IBA155, read-out: MIC",0.75 µg/mL
same,diameter of inhibition zone,"[6]; C. parapsilosis ATCC 22019, (-) = zone not observed, paper discs 9 mm",32 mm
same,MIC,"[6]; Lodderomyces parapsilosis, ATCC22019, read-out: MIC",2 µg/mL
same,diameter of inhibition zone,"C. tropicalis ATCC 750; C. tropicalis ATCC 750, (-) = zone not observed, paper discs 9 mm",40 mm
same,MIC,"C. tropicalis ATCC 750; Candida tropicalis, ATCC750, read-out: MIC",0.38 µg/mL
same,diameter of inhibition zone,"C. tropicalis IBA 171; C. tropicalis IBA 171, (-) = zone not observed, paper discs 9 mm",39 mm
same,MIC,"C. tropicalis IBA 171; Candida tropicalis, IBA171, read-out: MIC",0.38 µg/mL
same,diameter of inhibition zone,"S. cerevisiae ATCC 9763; S. cerevisiae ATCC 9763, (-) = zone not observed, paper discs 9 mm",12 mm
same,MIC,"S. cerevisiae ATCC 9763; Saccharomyces cerevisiae, ATCC9763, read-out: MIC",16 µg/mL
